Assay results: patent US20110077237A1, “KINASE INHIBITORS” (VERTEX PHARMACEUTICALS INCORPORATED, priority 2007, published 2011)
pKi: −log10 of the molar value.

What was measured:
PKC delta kinase = PKC delta kinase (Homo sapiens, UniProt Q05655); assay: PKC Delta coupled-enzyme kinase assay; type: biochemical; settings: 46 nM PKC delta, 150 μM ATP, 30° C.; read-out: Ki PKC delta
Experimental: An assay buffer solution was prepared which consisted of 100 mM HEPES (pH 7.5), 10 mM MgCl2, 25 mM NaCl, 0.1 mM EDTA and 0.01% Brij. […] To 16 μL of this enzyme buffer, in a 384 well plate, was added 1 μL of VRT stock solution in DMSO. The mixture was allowed to equilibrate for 10 mins at 30° C. […] Ki values were calculated from initial rate data by non-linear regression using the Prism software package (Prism 4.0a, Graphpad Software, San Diego, Calif.).

PKC alpha kinase = PKC alpha kinase (Homo sapiens, UniProt P17252); assay: PKC Alpha coupled-enzyme kinase assay; type: biochemical; settings: 4.5 nM PKC alpha, 130 μM ATP, 30° C.
Experimental: An assay buffer solution was prepared which consisted of 100 mM HEPES (pH 7.5), 10 mM MgCl2, 25 mM NaCl, 0.1 mM EDTA, 100 μM CaCl2 and 0.01% Brij. […] To 16 μL of this enzyme buffer, in a 384 well plate, was added 1 μL of VRT stock solution in DMSO. The mixture was allowed to equilibrate for 10 mins at 30° C. The enzyme reaction was initiated by the addition of 16 μL stock ATP solution prepared in assay buffer to a final assay concentration of 130 μM. Initial rate data was determined from the rate of change of absorbance at 340 nm (corresponding to stoichiometric consumption of NADH) using a Molecular Devices Spectramax plate reader (Sunnyvale, Calif.) over 15 mins at 30° C. For each Ki determination 12 data points covering the VRT concentration range of 0-20 μM were obtained in duplicate (DMSO stocks were prepared from an initial 10 mM VRT stock with subsequent 1:2 serial dilutions). Ki values were calculated from initial rate data by non-linear regression using the Prism software package (Prism 4.0a, Graphpad Software, San Diego, Calif.).

Sequence of PKC delta kinase (Q05655 whole entry): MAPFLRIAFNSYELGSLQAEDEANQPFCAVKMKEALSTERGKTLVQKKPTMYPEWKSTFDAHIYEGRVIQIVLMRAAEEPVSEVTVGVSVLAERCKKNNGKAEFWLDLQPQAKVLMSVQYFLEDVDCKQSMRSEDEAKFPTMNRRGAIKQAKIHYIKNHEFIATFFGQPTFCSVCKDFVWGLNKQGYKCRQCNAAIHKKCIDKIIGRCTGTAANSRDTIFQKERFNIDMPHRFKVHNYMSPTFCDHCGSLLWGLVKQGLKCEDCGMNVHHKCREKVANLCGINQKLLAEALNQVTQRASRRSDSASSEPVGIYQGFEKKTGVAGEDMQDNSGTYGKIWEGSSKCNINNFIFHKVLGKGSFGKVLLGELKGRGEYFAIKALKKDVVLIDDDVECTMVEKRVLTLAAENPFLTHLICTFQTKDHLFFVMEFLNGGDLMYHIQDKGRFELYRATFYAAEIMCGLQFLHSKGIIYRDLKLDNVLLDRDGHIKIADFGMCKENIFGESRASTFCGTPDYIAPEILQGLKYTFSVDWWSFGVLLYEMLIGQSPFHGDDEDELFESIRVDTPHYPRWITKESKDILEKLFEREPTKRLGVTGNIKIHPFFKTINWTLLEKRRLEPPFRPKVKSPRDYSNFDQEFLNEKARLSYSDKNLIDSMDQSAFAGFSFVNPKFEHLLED

| Compound | pKi (PKC delta kinase) | pKi (PKC alpha kinase) |
| --- | --- | --- |
| CCc1ccc(N2CCNC(c3ccccc3)C2)nc1C(=O)c1cccnc1N (centres unmarked) [compound 350] | 6.30 to 7.30 | 5.55 to 6.30 |
| Nc1ncccc1C(=O)c1nc(OCC(N)c2ccccc2)ccc1C(F)(F)F (centres unmarked) [compound 415] | – | > 7.30 |
| Nc1ncccc1C(=O)c1nc(Cl)cnc1N1CCNCC1 [compound 340] | < 5.55 | < 5.55 |
| Nc1ncccc1C(=O)c1nccc(N2CCNCC2)n1 [compound 344] | < 5.55 | < 5.55 |
| Cc1sc(N2CCCNCC2)nc1C(=O)c1cccnc1N [compound 109] | 5.55 to 6.30 | 5.55 to 6.30 |
| C=Cc1cnc(N)c(C(=O)c2nc(N3CCNC(c4ccccc4)C3)ccc2C(F)(F)F)c1 (centres unmarked) [compound 328] | 6.30 to 7.30 | > 7.30 |
| C=Cc1cnc(N)c(C(=O)c2cccc(N3CCNCC3)n2)c1 [compound 202] | – | > 7.30 |
| CC(C)C[C@H]1CN(c2ccc(Cc3ccccc3)c(C(=O)c3cccnc3N)n2)CCN1 [compound 418] | – | 5.55 to 6.30 |
| C=Cc1cnc(N)c(C(=O)c2nc(N3CCNCC3)ccc2C(F)(F)F)c1 [compound 327] | – | > 7.30 |
| NCC1CCCN(c2cccc(C(=O)c3cccnc3N)n2)C1 (centres unmarked) [compound 333] | < 5.55 | < 5.55 |
| CC(=O)c1ccc(N2CCN[C@@H](CC(C)C)C2)nc1C(=O)c1cccnc1N [compound 351] | 5.55 to 6.30 | < 5.55 |
| CC(C)C[C@H]1CN(c2ccc(C3CC3)c(C(=O)c3cccnc3N)n2)CCN1 [compound 352] | – | 5.55 to 6.30 |
| Nc1ncccc1C(=O)c1cncc(N2CCCNCC2)n1 [compound 157] | 6.30 to 7.30 | 5.55 to 6.30 |
| Nc1ncccc1C(=O)c1cccc(N2CCNC(CO)C2)n1 (centres unmarked) [compound 303] | 6.30 to 7.30 | 5.55 to 6.30 |
| Nc1ncccc1C(=O)c1nccc(N2CCNC(c3ccccc3)C2)n1 (centres unmarked) [compound 341] | < 5.55 | < 5.55 |
| Nc1ncccc1C(=O)c1nc(NCC2CCCNC2)ccc1C(F)(F)F (centres unmarked) [compound 387] | 6.30 to 7.30 | 5.55 to 6.30 |
| Cc1ccccc1C1CN(c2cccc(C(=O)c3cccnc3N)n2)CCN1 (centres unmarked) [compound 339] | 6.30 to 7.30 | 5.55 to 6.30 |
| COc1ccc(C2CN(c3cccc(C(=O)c4cccnc4N)n3)CCN2)cc1 (centres unmarked) [compound 310] | 6.30 to 7.30 | 5.55 to 6.30 |
| Nc1ncccc1C(=O)c1nc(NCC2CCCN2)ccc1C(F)(F)F (centres unmarked) [compound 379] | 5.55 to 6.30 | 5.55 to 6.30 |
| NCCSc1ccc(C(F)(F)F)c(C(=O)c2cccnc2N)n1 [compound 367] | 5.55 to 6.30 | 5.55 to 6.30 |

| Compound | pKi (PKC delta kinase) | pKi (PKC alpha kinase) |
| --- | --- | --- |
| Nc1ncccc1C(=O)c1cncc(N2CCC(N)CC2)n1 [compound 161] | 5.55 to 6.30 | 5.55 to 6.30 |
| NCCCNc1ccc(C(F)(F)F)c(C(=O)c2cccnc2N)n1 [compound 372] | 5.55 to 6.30 | 5.55 to 6.30 |
| CC(C)[C@H](N)COc1ccc(C(F)(F)F)c(C(=O)c2cccnc2N)n1 [compound 400] | 5.55 to 6.30 | 5.55 to 6.30 |
| Nc1ncc(Br)cc1C(=O)c1cccc(N2CCNC(c3ccccc3)C2)n1 (centres unmarked) [compound 240] | 6.30 to 7.30 | > 7.30 |
| Nc1ncc(Br)cc1C(=O)c1nc(N2CCNC(c3ccccc3)C2)ccc1C(F)(F)F (centres unmarked) [compound 326] | 6.30 to 7.30 | > 7.30 |
| CC(C)=Cc1cnc(N)c(C(=O)c2cccc(N3CCCNCC3)n2)c1 [compound 246] | 6.30 to 7.30 | > 7.30 |
| C=Cc1cnc(N)c(C(=O)c2cccc(N3CCNC(c4ccccc4)C3)n2)c1 (centres unmarked) [compound 241] | 6.30 to 7.30 | > 7.30 |
| CC(C)C[C@H]1CN(c2ccnc(C(=O)c3cccnc3N)n2)CCN1 [compound 345] | < 5.55 | 5.55 to 6.30 |
| CCCc1ccc(N2CCN[C@@H](CC(C)C)C2)nc1C(=O)c1cccnc1N [compound 385] | – | 5.55 to 6.30 |
| Nc1ncccc1C(=O)c1cccc(N2CCNC(c3ccc(Cl)cc3)C2)n1 (centres unmarked) [compound 307] | 5.55 to 6.30 | 5.55 to 6.30 |
| NCCNc1ccc(C(F)(F)F)c(C(=O)c2cccnc2N)n1 [compound 371] | 5.55 to 6.30 | 5.55 to 6.30 |
| Nc1ncccc1C(=O)c1cccc(N2CCCN(C(=O)c3sccc3Cl)CC2)n1 [compound 92] | 5.55 to 6.30 | 5.55 to 6.30 |
| C#Cc1cnc(N)c(C(=O)c2cccc(N3CCCNCC3)n2)c1 [compound 108] | – | > 7.30 |
| CC(F)(F)c1ccc(N2CCNC(c3ccccc3)C2)nc1C(=O)c1cccnc1N (centres unmarked) [compound 355] | 6.30 to 7.30 | 5.55 to 6.30 |
| Nc1ncc(Br)cc1C(=O)c1nc(N2CCNCC2)ccc1C(F)(F)F [compound 325] | 6.30 to 7.30 | > 7.30 |
| Nc1ncccc1C(=O)c1nc(NCC2CCNC2)ccc1C(F)(F)F (centres unmarked) [compound 377] | 6.30 to 7.30 | 5.55 to 6.30 |
| Nc1ncccc1C(=O)c1nc(NC[C@@H](N)c2ccccc2)ccc1C(F)(F)F [compound 388] | – | > 7.30 |
| CCc1ccc(N2CCNCC2)nc1C(=O)c1cccnc1N [compound 348] | 6.30 to 7.30 | < 5.55 |
| Cc1cccc(C2CN(c3cccc(C(=O)c4cccnc4N)n3)CCN2)c1 (centres unmarked) [compound 335] | 6.30 to 7.30 | – |
| N#Cc1ccc(-c2cnc(N)c(C(=O)c3cccc(N4CCNC(c5ccccc5)C4)n3)c2)cc1 (centres unmarked) [compound 271] | 6.30 to 7.30 | – |

| Compound | pKi (PKC delta kinase) | pKi (PKC alpha kinase) |
| --- | --- | --- |
| CC(C)N1CCN(c2cccc(C(=O)c3cc(Br)cnc3N)n2)CC1 [compound 100] | 6.30 to 7.30 | – |
| CC#Cc1ccc(N2CCNCC2)nc1C(=O)c1cccnc1N [compound 412] | 6.30 to 7.30 | – |
| CC(C)C[C@H]1CN(c2ccc(Cl)c(C(=O)c3cccnc3N)n2)CCN1 [compound 323] | – | > 7.30 |
| Nc1ncc(-c2cc[nH]c2)cc1C(=O)c1cccc(N2CCNC(c3ccccc3)C2)n1 (centres unmarked) [compound 289] | 6.30 to 7.30 | – |
| Cc1sc(N2CCNC(c3ccccc3)C2)nc1C(=O)c1cccnc1N (centres unmarked) [compound 256] | 5.55 to 6.30 | – |
| Nc1ncc(-c2ccsc2)cc1C(=O)c1cccc(N2CCCNCC2)n1 [compound 201] | 6.30 to 7.30 | – |
| N#Cc1cccc(-c2cnc(N)c(C(=O)c3cccc(N4CCNC(c5ccccc5)C4)n3)c2)c1 (centres unmarked) [compound 270] | 6.30 to 7.30 | – |
| Nc1ncccc1C(=O)c1cccc(N2CCCN(C(=O)CC3CC3)CC2)n1 [compound 35] | < 5.55 | – |
| CN1CCCN(c2cncc(C(=O)c3cc(Br)cnc3N)n2)CC1 [compound 156] | 6.30 to 7.30 | – |
| Nc1ncccc1C(=O)c1nc(N2CCC(N)CC2)ccc1Cl [compound 322] | 6.30 to 7.30 | – |
| Nc1ncccc1C(=O)c1nc(N2CCCNCC2)cs1 [compound 102] | 6.30 to 7.30 | – |
| Nc1ncc(-c2cccc(O)c2)cc1C(=O)c1cccc(N2CCNC(c3ccccc3)C2)n1 (centres unmarked) [compound 260] | 6.30 to 7.30 | – |
| Cc1ccc(N2CCNC(c3ccccc3)C2)nc1C(=O)c1cccnc1N (centres unmarked) [compound 252] | 6.30 to 7.30 | – |
| Cc1cccc(-c2cnc(N)c(C(=O)c3cccc(N4CCCNCC4)n3)c2)c1 [compound 182] | 6.30 to 7.30 | – |
| Nc1ncccc1C(=O)c1nc(N2CCNC(c3ccccc3)C2)ccc1C(F)(F)F (centres unmarked) [compound 317] | 6.30 to 7.30 | – |
| Nc1ccc(-c2cnc(N)c(C(=O)c3cccc(N4CCCNCC4)n3)c2)cc1 [compound 170] | 6.30 to 7.30 | – |
| C=Cc1cnc(N)c(C(=O)c2nc(N3CCNCC3)ccc2Cl)c1 [compound 330] | – | > 7.30 |
| Nc1ncccc1C(=O)c1cccc(-c2c[nH]c3ccccc23)n1 [compound 294] | < 5.55 | – |
| Nc1ncc(/C=C/c2ccccc2)cc1C(=O)c1cccc(N2CCCNCC2)n1 [compound 167] | 6.30 to 7.30 | – |
